According to paper PMC12442099 (ACS Infectious Diseases, 2025):
Converted amounts (≈) assume the structure as drawn.

Experiments:
E. coli BW25113 = assay: MIC broth microdilution; format: cell-based; conditions: Escherichia coli, CAMHB, median of triplicates, read-out: MIC (μg/mL) E. coli BW25113
Description: (§1) The antibacterial activity of the compounds was determined by measuring their minimum inhibitory concentration (MIC) values using the broth microdilution method according to the Clinical and Laboratory Standards Institute guidelines (CLSI). Briefly, a single colony from blood agar plates was inoculated into cation-adjusted Mueller-Hinton broth (CAMHB) and grown to OD600 = 0.5. Next, 10^6 CFU/mL were added to a 2-fold serial dilution series of test compounds and incubated at 37 °C, 600 rpm overnight (18–20 h for Gram-negative strains, 20–24 h for Gram-positive strains), after which the plates were visually inspected for bacterial growth. MICs are reported as the median of triplicates.

S. aureus USA 300 = assay: MIC broth microdilution; format: cell-based; conditions: Staphylococcus aureus, USA300; clinical isolate; CAMHB, median of triplicates; read-out: MIC (μg/mL) S. aureus USA 300
Description: as §1

P. aeruginosa 27853 = assay: MIC broth microdilution; format: cell-based; conditions: Pseudomonas aeruginosa, clinical isolate, CAMHB, median of triplicates, read-out: MIC (μg/mL) P. aeruginosa 27853
Description: as §1

E. coli 25922 = assay: MIC broth microdilution; format: cell-based; conditions: Escherichia coli, CAMHB, median of triplicates, read-out: MIC (μg/mL) E. coli 25922
Description: as §1

K. pneumoniae 13883 = assay: MIC broth microdilution; format: cell-based; conditions: Klebsiella pneumoniae, clinical isolate, CAMHB, median of triplicates, read-out: MIC (μg/mL) K. pneumoniae 13883
Description: as §1

A. baumanni 9955 = assay: MIC broth microdilution; format: cell-based; conditions: Acinetobacter baumannii, clinical isolate, CAMHB, median of triplicates, read-out: MIC (μg/mL) A. baumanni 9955
Description: as §1

E. coli TOP10F’ = assay: MIC broth microdilution; format: cell-based; conditions: Escherichia coli; screening strain; CAMHB, median of triplicates; read-out: MIC (μg/mL) E. coli TOP10F’
Description: as §1

E. coli TOP10F' = assay: Growth inhibition after 7 hours (EC80/EC50); conditions: Escherichia coli, 7 h; for EC50: read-out: EC50 TOP10F'; for IC80: read-out: EC80 TOP10F'
[1] = test system: Rcs cell envelope stress response in Escherichia coli; assay: Rcs stress reporter assay, HTS format, dose-response curves; format: cell-based; conditions: for Emax: read-out: Max. effect (%); for EC50: read-out: pEC50 (converted)
Description: We adapted the reporter assay based on the Rcs stress system for HTS in a screening program at the ELF as the first bacterial phenotypic screen used in this setting. , The assay was performed in a 1536-well format using 25 μM PMBN as a reference (set at 100% effect).
The ELF screened their extensive and diverse library consisting of >500,000 small molecules at a concentration of 10 μM. The assay window (S/B) and Z’ values remained stable (2.0–15.2 and 0.50–0.90, respectively) throughout the screening campaign. The detailed standard screening procedure of the ELF is outlined elsewhere. An overview of the selection process of the screening campaign performed here is outlined in Figure . Initially, 340 compounds with an effect ≥20% of the reference compound PMBN were considered biologically active. Usually, up to 1% of the input library is selected for confirmatory, dose–response, orthogonal and deselection assays. Because the number of biological actives identified in this assay was well below the 1% limit, no orthogonal assays were performed. Instead, all compounds were reordered and tested as dilution series in the Rcs assay to generate dose–response curves (DRCs). Each compound’s pEC50 (−log of EC50, defined as the concentration (mol/L) at which 50% effect is achieved) was determined, and compounds with a pEC50 ≥ 4.7 were selected for further analysis. Next, the compounds were subjected to a mammalian cell-based cytotoxicity assay to exclude toxic compounds that may have a generic effect on membrane integrity. Compounds that reduced mammalian cell viability by 50% were considered cytotoxic. The qualified hit list (QHL) was then generated following triaging based on LC-MS analysis and pEC50 values.
Overnight cultures (ONCs) were prepared by inoculating 5 mL medium from glycerol stocks and incubating the culture for 16–18 h. ONCs were then diluted to an OD600 of 0.05 and grown until an OD600 of 0.3–0.4 was reached.
Assay robustness was confirmed by testing its sensitivity to assay-interfering agents, including colored, aggregating and fluorescent compounds. […] For HTS, bacteria were diluted 50x in prewarmed medium. Fifteen nL of assay compounds (10 μM), DMSO (0.25%), or the reference compound polymyxin B nonapeptide (PMBN) at 25 μM were added to 1536 well plates. Next, 6 μL culture aliquots were added to assay plates containing compounds. Plates were briefly centrifuged for 1 min at 150 x g. Plates were incubated at 37 °C with high humidity and fluorescence (Ex./Em. λ: 485/528 nm) was measured at T = 0 and T = 150 min using a ClarioStar plate reader (BMG Labtech). For data analysis, T = 0 values were subtracted from T = 150 values to calculate Z-score and % effect compared to the reference compound.
Dose–response curves of the 340 initial active compounds were determined following the preparation of serial dilutions (20 nM–20 μM; 7 points, √10). The % effect compared to the reference compound PMBN was calculated and plotted for each compound dilution. The resulting plots were used to calculate pEC50 (-log(EC50), with EC50 being determined as the concentration at which a 50% effect is observed).

E. coli MC4100 = assay: Growth inhibition after 7 hours (EC80/EC50); conditions: Escherichia coli, MC4100, 7 h; for EC50: read-out: EC50 MC4100; for IC80: read-out: EC80 MC4100
[2] = test system: Rcs stress response in E. coli TOP10F’; assay: Rcs stress kinetics reporter assay; format: cell-based
Description: Stress was measured in real-time during 10 h following compound treatment by normalizing the fluorescence intensity for growth as indicated by the optical density at 600 nm (OD600) of the culture.
3 Bacterial stress responses of different compound classes as shown in panel (A). (B) Rcs, (C) σE, (D) Cpx, and (E) heat shock. Graphs show fold change in fluorescence normalized for OD600 at EC80 compound concentrations over the course of 10h. Fold change values were determined by comparing OD600‑normalized fluorescence of compound-treated samples to DMSO treated samples. PMBN is used as a CE stress-inducing control at 25 μg/mL, which is the concentration used as a control during the screening campaign. Chloramphenicol at 1 μg/mL is used as a non-stress-inducing antibiotic control. Error bars indicate standard deviation of the average of triplicate samples from at least two independent experiments. (F) Overview of the different stress responses based on the compound class.
(§2) For lower throughput analysis under laboratory conditions, cultures grown to OD600 of 0.3–0.4 were diluted to a final concnetration of 0.05 OD600 units/mL in black, clear-bottom 96-well plates (Greiner Bio-One B.V.). Plates were incubated in a Biotek HTX or H1 plate reader (Agilent Technologies) at 37 °C with continuous shaking. Kinetic studies were performed by measuring OD600 and fluorescence (Ex./Em. Λ: 485/528 nm) every 20 min for 10h. For end point measurements, fluorescence was measured at T = 0 and once more at T = 150 min.

[3] = test system: SOS stress response in E. coli MC4100; assay: SOS stress reporter assay (PlexA-mNG); format: cell-based; conditions: EC80 compound concentrations (Fig. 5A); Fig. S4
From the text: To examine the potential link between DNA gyrase inhibition, SOS stress, and CE stress, we designed a fluorescent SOS reporter plasmid, similar to the reporter plasmids used to study CE stresses.
5 (A) SOS stress induced by different compounds at EC80 concentrations in E. coli MC4100. (B) Rcs stress of different compounds at EC80 concentrations in E. coli MC4100. (C) Rcs stress of the nonquinolone gyrase inhibitor LEI-800 in TOP10F’. (D) Rcs stress induced by mitomycin C in E. coli TOP10F’ and E. coli MC4100. Graphs show fold change in fluorescence adjusted for bacterial growth (OD600). Error bars indicate standard deviation of triplicates. Data are representative of two independent experiments with similar results.

[4] = test system: Rcs stress response in E. coli MC4100 (WT, FQR, GEPR); assay: Rcs stress reporter assay in MC4100 wildtype and resistant mutants; format: cell-based; conditions: EC80 concentrations
From the text: Serial passaging of E. coli MC4100 in the presence of increasing concentrations of lomefloxacin or gepotidacin yielded resistant variants of E. coli MC4100. We used MC4100 to raise resistance, because unlike the screening strain TOP10F’, this strain has a functional SOS stress response, which has been implicated in developing resistance against quinolones. Compounds also elicited a robust Rcs stress response in E. coli MC4100, allowing for this strain to be used for stress assays.
4 Rcs stress induced by EC80 concentrations of (A) lomefloxacin, (B) gepotidacin, (C) A2, and (D) B1 in wildtype (WT), fluoroquinolone resistant (FQR) or gepotidacin resistant (GEPR) bacteria. Graphs show the fold change in fluorescence adjusted for bacterial growth as determined by OD600. Error bars indicate the standard deviation of triplicate samples. Data are representative of three independent experiments with similar results. […]
as §2

SMILES	MIC (E. coli BW25113)	MIC (S. aureus USA 300)	MIC (P. aeruginosa 27853)	MIC (E. coli 25922)	MIC (K. pneumoniae 13883)	MIC (A. baumanni 9955)	MIC (E. coli TOP10F’)	EC50 (E. coli TOP10F')	IC80 (E. coli TOP10F')	Emax [1]	EC50 [1]	EC50 (E. coli MC4100)	IC80 (E. coli MC4100)	induction of stress response systems (Rcs, σE, Cpx, heat shock) ([2]; chloramphenicol 1 μg/mL, negative control)	Rcs stress induction in SOS-deficient TOP10F’ ([2]; fold change fluorescence/OD600)	SOS stress induction in MC4100 [3]	Rcs stress induction in MC4100 wildtype [4]
COC1CN(CCn2c(=O)ccc3ncc(F)cc32)CCC1NCc1cc(F)c2c(c1)NC(=O)CO2 (stereo not drawn) [B2]	1 µg/mL (≈ 2 µM)	0.25 µg/mL (≈ 0.5 µM)	8 µg/mL (≈ 16 µM)	2 µg/mL (≈ 4 µM)	4 µg/mL (≈ 8.01 µM)	1 µg/mL (≈ 2 µM)	0.06 µg/mL (≈ 0.12 µM)	< 0.063 µg/mL	2 µg/mL (≈ 4 µM)	53.2%	631 nM	2 µg/mL (≈ 4 µM)	16 µg/mL (≈ 32 µM)	–	–	–	–
CCc1cc(-c2c(F)cc3c(=O)c(C(=O)O)cn4c3c2OC[C@@H]4C)cc(C)n1 [A3]	0.125 µg/mL (≈ 0.327 µM)	0.5 µg/mL (≈ 1.31 µM)	8 µg/mL (≈ 20.9 µM)	0.125 µg/mL (≈ 0.327 µM)	1 µg/mL (≈ 2.62 µM)	0.5 µg/mL (≈ 1.31 µM)	< 0.03 µg/mL	0.0078 µg/mL (≈ 0.0204 µM)	0.031 µg/mL (≈ 0.0811 µM)	18.6%	191 nM	0.25 µg/mL (≈ 0.654 µM)	1 µg/mL (≈ 2.62 µM)	–	–	–	–
CNn1cc(C(=O)O)c(=O)c2cc(F)c(N3CCN(C(C)C)CC3)cc21 [A4]	0.25 µg/mL (≈ 0.69 µM)	64 µg/mL (≈ 177 µM)	16 µg/mL (≈ 44.1 µM)	0.25 µg/mL (≈ 0.69 µM)	0.5 µg/mL (≈ 1.38 µM)	2 µg/mL (≈ 5.52 µM)	0.125 µg/mL (≈ 0.345 µM)	2 µg/mL (≈ 5.52 µM)	4 µg/mL (≈ 11 µM)	20.8%	214 nM	0.25 µg/mL (≈ 0.69 µM)	1 µg/mL (≈ 2.76 µM)	–	–	–	–
O=C(N[C@H](CO)[C@H](O)c1ccc([N+](=O)[O-])cc1)C(Cl)Cl [Chloramphenicol]	–	–	–	–	–	–	–	–	–	–	–	–	–	did not induce any of the stress response systems tested	–	–	–
CN(C)c1ccc(-c2nc(Cl)nc3cccnc23)cc1 [S2]	–	–	–	–	–	–	–	–	–	87.9%	7760 nM	–	–	–	–	–	–
O=S(=O)(NC[C@@H]1CC[C@H](c2ccc(-c3cccnc3)cc2)N1)c1cccc2cnccc12 [LEI-800, reference compound]	–	–	–	–	–	–	–	1 µg/mL (≈ 2.25 µM)	8 µg/mL (≈ 18 µM)	–	–	2 µg/mL (≈ 4.5 µM)	8 µg/mL (≈ 18 µM)	–	induced high levels of Rcs stress similar to CluB compounds	did not induce strong fluorescence	Neither compound induced Rcs stress
Cc1ncc(CNC2CCN(CCn3c(=O)ccc4ncc(OCc5ccnn5C)cc43)CC2)cc1Cl [B3]	16 µg/mL (≈ 30.6 µM)	0.125 µg/mL (≈ 0.239 µM)	> 64 µg/mL	16 µg/mL (≈ 30.6 µM)	64 µg/mL (≈ 123 µM)	8 µg/mL (≈ 15.3 µM)	2 µg/mL (≈ 3.83 µM)	0.016 µg/mL (≈ 0.0306 µM)	1 µg/mL (≈ 1.92 µM)	37.9%	5620 nM	2 µg/mL (≈ 3.83 µM)	> 16 µg/mL	–	–	–	–
Cc1cc(-c2c(F)cc3c(=O)c(C(=O)O)cn(CCF)c3c2F)cc(C)n1 [A1]	0.25 µg/mL (≈ 0.664 µM)	1 µg/mL (≈ 2.66 µM)	16 µg/mL (≈ 42.5 µM)	0.5 µg/mL (≈ 1.33 µM)	1 µg/mL (≈ 2.66 µM)	1 µg/mL (≈ 2.66 µM)	< 0.03 µg/mL	0.016 µg/mL (≈ 0.0425 µM)	0.063 µg/mL (≈ 0.167 µM)	26.1%	955 nM	0.5 µg/mL (≈ 1.33 µM)	2 µg/mL (≈ 5.31 µM)	–	–	–	–
